# Measurements from PMC11844072, “Novel 5,6-dichlorobenzimidazole derivatives as dual BRAFWT and BRAFV600E inhibitors: design, synthesis, anti-cancer activity and molecular dynamics simulations” (BMC Chemistry, 2025).
# Assays:
# Assay in all cases: NCI 60 single concentration growth inhibition
# Format in all cases: cell-based, human
# 786-0 = conditions: Homo sapiens, 786-0, Renal cancer, read-out: GI%
# Description: (§1) The synthesized dichlorobenzimidazoles 10a–p were assayed for their influence on divers cancer cell lines according to the method presented in the Additional file A.
# (§2) 5. Screening of cytotoxic activity against a panel of sixty human tumor cell lines
# (§3) The selected compounds by NCI were evaluated for their anticancer activity in a two-stage process. First, these compounds were screened against the full NCI 60 cell lines panel at a single high dose of 10 µM. Then, the output from the single dose screen is reported as a mean graph. […]
# (§4) at five different minimal concentrations.
# (§5) Assay protocol. The human tumor cell lines of the cancer screening panel are grown in RPMI 1640 medium containing 5% fetal bovine serum and 2 mM L-glutamine. For a typical screening experiment, cells are inoculated into 96 well microtiter plates in 100 µL at plating densities ranging from 5000 to 40,000 cells/well depending on the doubling time of individual cell lines. After cell inoculation, the microtiter plates are incubated at 37 °C, 5% CO 2, 95% air and 100% relative humidity for 24 h prior to addition of the experimental drugs.
# (§6) After 24 h, two plates of each cell line are fixed in situ with TCA, to represent a measurement of the cell population for each cell line at the time of drug addition (Tz). The experimental drugs are solubilized in dimethyl sulfoxide at 400-fold the desired final maximum test concentration and stored frozen prior to use. At the time of drug addition, an aliquot of frozen concentrate is thawed and diluted to twice the desired final maximum test concentration with complete medium containing 50 µg/mL gentamicin. Additional four, 10-fold or ½ log serial dilutions are made to provide a total of five drug concentrations plus control.
# (§7) Aliquots of […] of these different drug dilutions are added to the appropriate microtiter wells already containing […] of medium, resulting in the required final drug concentrations.
# (§8) Following drug addition, the plates are incubated for an additional 48 h at 37 °C, 5% CO 2, 95% air, and 100% relative humidity. For adherent cells, the assay is terminated by the addition of cold TCA.
# (§9) Cells are fixed in situ by the gentle addition of 50 µL of cold 50% (w/v) TCA (final concentration, 10% TCA) and incubated for 60 min at 4 °C. The supernatant is discarded, and the plates are washed five times with tap water and air dried. Sulforhodamine B (SRB) solution ([…]) at 0.4% (w/v) in 1% acetic acid is added to each well, and plates are incubated for 10 min at room temperature. After staining, unbound dye is removed by washing five times with 1% acetic acid and the plates are air dried. Bound stain is subsequently solubilized with 10 mM trizma base, and the absorbance is read on an automated plate reader at a wavelength of 515 nm. For suspension cells, the methodology is […]
# (§10) the same except that the assay is terminated by fixing settled cells at the bottom of the wells by gently adding 50 µl of 80% TCA (final concentration, 16% TCA). Using the seven absorbance measurements [time zero, (Tz), control growth, (C), and test growth in the presence of drug at the five concentration levels (Ti)], the percentage growth is calculated at each of the drug concentrations […]
# (§11) Percentage growth inhibition is calculated as: [(Ti Tz)/(C–Tz)] x 100 for concentrations for which Ti>/=Tz and [(Ti-Tz)/Tz] x 100 for concentrations for which Ti < Tz.
# (§12) Three dose response parameters are calculated for each experimental agent. Growth […]
# (§13) concentration resulting in a 50% reduction in the net protein increase (as measured by SRB staining) in control cells during the drug incubation. The drug concentration resulting in total growth inhibition (TGI) is calculated from Ti = Tz. […]
# (§14) reduction in the measured protein at the end of the drug treatment as compared to that at the beginning) indicating a net loss of cells following treatment is calculated from [(Ti–Tz)/Tz] x 100 =
# (§15) _50. Values are calculated for each of these three parameters if the level of activity is reached; […]
# A498 = conditions: Homo sapiens, A498, Renal cancer, read-out: GI%
# Description: as §1, §2, §3, §4, §5, §6, §7, §8, §9, §10, §11, §12, §13, §14, §15
# A549/ATCC = conditions: Homo sapiens, Non-small cell lung cancer, read-out: GI%
# Description: as §1, §2, §3, §4, §5, §6, §7, §8, §9, §10, §11, §12, §13, §14, §15
# CAKI-1 = conditions: Homo sapiens, CAKI-1, Renal cancer, read-out: GI%
# Description: as §1, §2, §3, §4, §5, §6, §7, §8, §9, §10, §11, §12, §13, §14, §15
# CCRF-CEM = conditions: Homo sapiens, Leukemia, read-out: GI%
# Description: as §1, §2, §3, §4, §5, §6, §7, §8, §9, §10, §11, §12, §13, §14, §15
# EKVX = conditions: Homo sapiens, Non-small cell lung cancer, read-out: GI%
# Description: as §1, §2, §3, §4, §5, §6, §7, §8, §9, §10, §11, §12, §13, §14, §15
# HCT-116 = conditions: Homo sapiens, HCT-116, Colon cancer, read-out: GI%
# Description: as §1, §2, §3, §4, §5, §6, §7, §8, §9, §10, §11, §12, §13, §14, §15
# HL-60(TB) = conditions: Homo sapiens, Leukemia, read-out: GI%
# Description: as §1, §2, §3, §4, §5, §6, §7, §8, §9, §10, §11, §12, §13, §14, §15
# HOP-62 = conditions: Homo sapiens, HOP-62, Non-small cell lung cancer, read-out: GI%
# Description: as §1, §2, §3, §4, §5, §6, §7, §8, §9, §10, §11, §12, §13, §14, §15
# HS 578T = conditions: Homo sapiens, Breast cancer, read-out: GI%
# Description: as §1, §2, §3, §4, §5, §6, §7, §8, §9, §10, §11, §12, §13, §14, §15
# M14 = conditions: Homo sapiens, M14, Melanoma, read-out: GI%
# Description: as §1, §2, §3, §4, §5, §6, §7, §8, §9, §10, §11, §12, §13, §14, §15
# MDA-MB-435 = conditions: Homo sapiens, MDA-MB-435, Melanoma, read-out: GI%
# Description: as §1, §2, §3, §4, §5, §6, §7, §8, §9, §10, §11, §12, §13, §14, §15
# MOLT-4 = conditions: Homo sapiens, MOLT-4, Leukemia, read-out: GI%
# Description: as §1, §2, §3, §4, §5, §6, §7, §8, §9, §10, §11, §12, §13, §14, §15
# NCI-H226 = conditions: Homo sapiens, NCI-H226, Non-small cell lung cancer, read-out: GI%
# Description: as §1, §2, §3, §4, §5, §6, §7, §8, §9, §10, §11, §12, §13, §14, §15
# NCI-H23 = conditions: Homo sapiens, NCI-H23, Non-small cell lung cancer, read-out: GI%
# Description: as §1, §2, §3, §4, §5, §6, §7, §8, §9, §10, §11, §12, §13, §14, §15
# OVCAR-5 = conditions: Homo sapiens, OVCAR-5, Ovarian cancer, read-out: GI%
# Description: as §1, §2, §3, §4, §5, §6, §7, §8, §9, §10, §11, §12, §13, §14, §15
# RPMI-8226 = conditions: Homo sapiens, RPMI-8226, Leukemia, read-out: GI%
# Description: as §1, §2, §3, §4, §5, §6, §7, §8, §9, §10, §11, §12, §13, §14, §15
# SF-268 = conditions: Homo sapiens, SF-268, CNS cancer, read-out: GI%
# Description: as §1, §2, §3, §4, §5, §6, §7, §8, §9, §10, §11, §12, §13, §14, §15
# SF-295 = conditions: Homo sapiens, SF-295, CNS cancer, read-out: GI%
# Description: as §1, §2, §3, §4, §5, §6, §7, §8, §9, §10, §11, §12, §13, §14, §15
# SK-MEL-2 = conditions: Homo sapiens, SK-MEL-2, Melanoma, read-out: GI%
# Description: as §1, §2, §3, §4, §5, §6, §7, §8, §9, §10, §11, §12, §13, §14, §15
# SR = conditions: Homo sapiens, Leukemia, read-out: GI%
# Description: as §1, §2, §3, §4, §5, §6, §7, §8, §9, §10, §11, §12, §13, §14, §15
# UACC-257 = conditions: Homo sapiens, UACC-257, Melanoma, read-out: GI%
# Description: as §1, §2, §3, §4, §5, §6, §7, §8, §9, §10, §11, §12, §13, §14, §15
SMILES,inhibition at 10 µM (786-0),inhibition at 10 µM (A498),inhibition at 10 µM (A549/ATCC),inhibition at 10 µM (CAKI-1),inhibition at 10 µM (CCRF-CEM),inhibition at 10 µM (EKVX),inhibition at 10 µM (HCT-116),inhibition at 10 µM (HL-60(TB)),inhibition at 10 µM (HOP-62),inhibition at 10 µM (HS 578T),inhibition at 10 µM (M14),inhibition at 10 µM (MDA-MB-435),inhibition at 10 µM (MOLT-4),inhibition at 10 µM (NCI-H226),inhibition at 10 µM (NCI-H23),inhibition at 10 µM (OVCAR-5),inhibition at 10 µM (RPMI-8226),inhibition at 10 µM (SF-268),inhibition at 10 µM (SF-295),inhibition at 10 µM (SK-MEL-2),other results
"COc1ccc(-c2nc3cc(Cl)c(Cl)cc3n2CC(=O)NN=Cc2ccc(O)cc2)cc1 [Compound 10b, 2-(5,6-Dichloro-2-(4-methoxyphenyl)-1H-benzo[d]imidazol-1-yl)-N'-(4-hydroxybenzylidene)acetohydrazide]",34.8%,25.9%,57.2%,57.2%,25.4%,52.6%,45.1%,50.7%,19.3%,37.8%,39.1%,39.1%,77.2%,35.5%,20.3%,< 5%,62.1%,52.5%,34%,32.3%,inhibition at 10 µM (SR): 64.7%; inhibition at 10 µM (UACC-257): 23.9%
"COc1ccc(-c2nc3cc(Cl)c(Cl)cc3n2CC(=O)NN=Cc2cccc(OC)c2)cc1 [Compound 10c, 2-(5,6-Dichloro-2-(4-methoxyphenyl)-1H-benzo[d]imidazol-1-yl)-N'-(3-methoxybenzylidene)acetohydrazide]",19.2%,22.7%,36.1%,43.5%,41.8%,30.4%,37.9%,28.8%,6.68%,28.9%,34.1%,33%,70.3%,17.1%,10.2%,< 5%,47.3%,48.3%,22.3%,19.4%,inhibition at 10 µM (SR): 48.4%; inhibition at 10 µM (UACC-257): 20.9%
"COc1ccc(C=NNC(=O)Cn2c(-c3ccc(OC)cc3)nc3cc(Cl)c(Cl)cc32)cc1 [Compound 10d, 2-(5,6-Dichloro-2-(4-methoxyphenyl)-1H-benzo[d]imidazol-1-yl)-N'-(4-methoxybenzylidene)acetohydrazide]",29.1%,47.2%,59.4%,52%,40.2%,76.8%,61.3%,40.9%,23.6%,34.6%,38.2%,41.4%,68.9%,33.9%,50.9%,21.5%,64.9%,48.6%,66.8%,30.9%,inhibition at 10 µM (SR): 35.1%; inhibition at 10 µM (UACC-257): 60.4%
"COc1ccc(-c2nc3cc(Cl)c(Cl)cc3n2CC(=O)NN=Cc2cccc(OCC(=O)O)c2)cc1 [Compound 10e, 2-(3-((2-(2-(5,6-Dichloro-2-(4-methoxyphenyl)-1H-benzo[d]imidazol-1-yl)acetyl)hydrazono)methyl)phenoxy)acetic acid]",< 5%,< 5%,< 5%,< 5%,< 5%,< 5%,< 5%,< 5%,< 5%,7.11%,6.12%,< 5%,< 5%,< 5%,5.12%,< 5%,< 5%,< 5%,< 5%,< 5%,inhibition at 10 µM (SR): < 5%; inhibition at 10 µM (UACC-257): < 5%
"COc1ccc(-c2nc3cc(Cl)c(Cl)cc3n2CC(=O)NN=Cc2ccc(OCC(=O)O)cc2)cc1 [Compound 10f, 2-(4-((2-(2-(5,6-Dichloro-2-(4-methoxyphenyl)-1H-benzo[d]imidazol-1-yl)acetyl)hydrazono)methyl)phenoxy)acetic acid]",< 5%,< 5%,< 5%,15%,< 5%,5.96%,< 5%,< 5%,< 5%,< 5%,< 5%,< 5%,< 5%,< 5%,< 5%,< 5%,< 5%,< 5%,< 5%,< 5%,inhibition at 10 µM (SR): < 5%; inhibition at 10 µM (UACC-257): < 5%
